Broadly, the IC50 is the point on the concentration scale where inhibition reaches its midpoint.

Data on two compounds can be found in US10538497B2, “Compounds as indoleamine 2,3-dioxygenase inhibitors” (Merck Sharp & Dohme Corp., priority 2015, dated 2020).

Molecules are shown by their SMILES.

Test [1] addresses T1, IDO1 (Homo sapiens (Human), UniProt P14902). In words: IDO1 In Vivo Assay (hIDO1-CT26 murine model). Conditions: oral administration, 100 and 300 mg/kg. Set-up: species or system mouse. On the procedure: hIDO1-CT26, a murine cell line generated in house to constitutively express the human IDO1 protein, was cultured in RPMI-1640+10% FBS+500 μM L-tryptophan in a standard cell incubator (37° C., 5% CO2). At 80% confluency, cells are rinsed in TrypLE, then incubated with TrypLE until fully detached (usually 1-5 min), resuspended in complete media, spun down (1000 rpm, 4° C., 5 min), and resuspended in phenol red-free RPMI-1640 before counting.
Two millions hIDO1-CT26 cells (20×10E6 cells/ml) in 50% phenol red-free RPMI-1640/50% Matrigel (growth factor reduced, GFR) are implanted subcutaneously in the right flank of anesthetized immunocompromised animals (CD-1 Nu/Nu, Charles River Labs). Ten days following implantation, tumors reach an average volume of 180 mm^3 at which point animals are randomized into treatment groups.
Animals are treated with IDO1 inhibitors by oral gavage (PO) every 12 h (BID dosing). Based on experimental design, animals will receive a minimum of 1 dose. At various times following the last dose, animals will be euthanized (CO2 asphyxiation), blood will be collected via cardiac puncture for plasma, and tumors will be resected. For plasma preparation, whole blood is transferred to plasma tube, and stored on ice prior to centrifugation. […]

Test [2] addresses T1, IDO1. In words: IDO1 Cellular Assay in Hela Cells Stimulated with IFNγ. Format: cell-based. Conditions: Hela cells stimulated with IFNγ 100 ng/mL; read-out: IDO1 HELA Cell Assay, IC50.
The target in test [3] is T1, IDO1. In words: IDO1 Enzyme Assay. Conditions: read-out: IDO1 Enzyme Assay, IC50; HIS-tagged recombinant IDO1, 40 nM.

T1 sequence (P14902 whole entry): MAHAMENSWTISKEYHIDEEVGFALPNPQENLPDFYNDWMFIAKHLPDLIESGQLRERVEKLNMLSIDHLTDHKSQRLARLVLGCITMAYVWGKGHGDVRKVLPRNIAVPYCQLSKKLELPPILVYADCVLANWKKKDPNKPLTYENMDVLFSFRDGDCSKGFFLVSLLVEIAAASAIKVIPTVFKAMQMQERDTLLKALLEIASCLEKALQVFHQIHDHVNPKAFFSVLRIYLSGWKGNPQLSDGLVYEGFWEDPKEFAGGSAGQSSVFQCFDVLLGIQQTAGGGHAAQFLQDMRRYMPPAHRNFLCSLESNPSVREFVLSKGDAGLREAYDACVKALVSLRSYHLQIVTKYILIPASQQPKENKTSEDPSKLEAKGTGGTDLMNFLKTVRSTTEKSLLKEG

As for `O=C(CSc1nonc1/C(=N/O)Nc1ccc(F)c(Br)c1)NC[C@@H](O)CO` [Example 42, (R)-2-((4-(N-(3-bromo-4-fluorophenyl)-N′-hydroxycarbamimidoyl)-1,2,5-oxadiazol-3-yl)thio)-N-(2,3-dihydroxypropyl)acetamide], the “kynurenine levels in both plasma and tumor” value at IDO1 [1] is reported as “dose-dependent reduction”. Besides, the 50% inhibitory concentration (IC50) stood at 34.3 nM at IDO1 [2] and 47.7 nM on IDO1 [3].

On to `NC(=O)NCCSc1nonc1/C(=N/O)Nc1ccc(F)c(Br)c1` [Example 46, N-(3-Bromo-4-fluorophenyl)-N′-hydroxy-4-((2-ureidoethyl)thio)-1,2,5-oxadiazole-3-carboximidamide], for which the “kynurenine levels in both plasma and tumor” value on IDO1 [1] is on record as “dose-dependent reduction”. The IC50 stood at 13.5 nM on IDO1 [2] and 33.9 nM at IDO1 [3].
